Experiments:
human transferrin (TRF) = target: T1, human transferrin (TRF) (Homo sapiens, UniProt P02787); test: intrinsic fluorescence quenching titration; assay type: binding; conditions: 298 K; 0.1 M Tris-HCl pH 7.3, 0.1 M NaCl; 10 μM protein; excitation 282 nm; n = 1.09; double-log
T1 construct: gene TF; mature glycoprotein, 679 residues, 19 disulfide bonds, about 77 kD
From the text: intrinsic fluorescence quenching titration on human transferrin (TRF)

[1] = target: T2, human serum albumin (HSA) (Homo sapiens, UniProt P02768); test: intrinsic fluorescence quenching titration; assay type: binding; conditions: 298 K; 0.1 M Tris-HCl pH 7.3, 0.1 M NaCl; 10 μM protein; excitation 282 nm; n = 1.15; double-log
T2 construct: gene ALB; mature protein, 585 residues, 17 disulfide bonds, about 67 kD
T2 sequence (P02768 25-609): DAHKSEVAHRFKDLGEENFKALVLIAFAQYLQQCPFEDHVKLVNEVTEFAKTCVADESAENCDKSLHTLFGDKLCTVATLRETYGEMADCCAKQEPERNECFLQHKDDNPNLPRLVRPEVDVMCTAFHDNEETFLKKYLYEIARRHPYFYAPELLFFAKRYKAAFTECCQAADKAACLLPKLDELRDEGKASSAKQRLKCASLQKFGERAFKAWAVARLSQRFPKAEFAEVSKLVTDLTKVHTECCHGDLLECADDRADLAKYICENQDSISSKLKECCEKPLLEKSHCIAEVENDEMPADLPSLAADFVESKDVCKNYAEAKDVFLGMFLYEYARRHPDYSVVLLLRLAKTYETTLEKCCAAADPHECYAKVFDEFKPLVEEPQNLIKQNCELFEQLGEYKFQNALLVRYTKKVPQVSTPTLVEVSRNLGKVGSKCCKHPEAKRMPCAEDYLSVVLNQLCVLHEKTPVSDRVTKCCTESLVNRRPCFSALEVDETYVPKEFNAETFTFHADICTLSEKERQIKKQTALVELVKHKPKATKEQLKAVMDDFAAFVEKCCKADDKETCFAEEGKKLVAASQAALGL
From the text: intrinsic fluorescence quenching titration on human serum albumin (HSA)

T1 sequence (P02787 20-698): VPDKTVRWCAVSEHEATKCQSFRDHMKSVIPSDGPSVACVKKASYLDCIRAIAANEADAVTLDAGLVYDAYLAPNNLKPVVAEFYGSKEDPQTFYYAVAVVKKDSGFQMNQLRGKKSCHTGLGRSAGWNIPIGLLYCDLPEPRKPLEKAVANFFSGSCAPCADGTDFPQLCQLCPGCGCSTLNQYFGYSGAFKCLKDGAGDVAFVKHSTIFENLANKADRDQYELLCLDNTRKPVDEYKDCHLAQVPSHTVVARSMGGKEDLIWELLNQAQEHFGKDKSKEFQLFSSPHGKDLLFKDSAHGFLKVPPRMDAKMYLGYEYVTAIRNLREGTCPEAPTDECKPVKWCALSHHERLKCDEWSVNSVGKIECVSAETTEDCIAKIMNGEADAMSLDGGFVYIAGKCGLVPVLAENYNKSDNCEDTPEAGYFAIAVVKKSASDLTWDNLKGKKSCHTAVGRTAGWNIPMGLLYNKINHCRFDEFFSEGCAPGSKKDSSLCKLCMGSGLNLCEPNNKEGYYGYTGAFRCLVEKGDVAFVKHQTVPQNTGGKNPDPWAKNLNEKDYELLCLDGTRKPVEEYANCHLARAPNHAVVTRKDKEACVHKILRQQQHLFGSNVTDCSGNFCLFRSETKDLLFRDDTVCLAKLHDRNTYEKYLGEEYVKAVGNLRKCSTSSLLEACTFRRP

COc1c(O)cc2oc3cc(O)c(CC=C(C)C)c(O)c3c(=O)c2c1CC=C(C)C [α-mangostin, 1,3,6-trihydroxy-7-methoxy-2,8-bis(3-methyl-2-butenyl)-9H-xanthen-9-one]
K (human transferrin (TRF)): 146520 L/mol | K [1]: 648320 L/mol

Source: article PMC5008840, “α-Mangostin Extraction from the Native Mangosteen (Garcinia mangostana L.) and the Binding Mechanisms of α-Mangostin to HSA or TRF” (PLoS ONE, 2016)
